Experimental data reported in ChEMBL document CHEMBL3779863, “Ionic liquid-promoted one-pot synthesis of thiazoleimidazo[2,1-b][1,3,4]thiadiazole hybrids and their antitubercular activity” (Medchemcomm, 2016).
In brackets after ≈: the same amount, converted by molar mass.

tested on: Mycobacterium tuberculosis; test: Antimycobacterial activity against extensively drug resistant Mycobacterium tuberculosis H37Rv ATCC 27294 after 28 days by agar dilution method; format: functional; settings: H37Rv ATCC 27294, 672 h

Row | SMILES | MIC
1 | Cc1nn2c(/C=N/Nc3nc(-c4ccc(F)cc4)cs3)c(-c3ccc(Cl)cc3)nc2s1 | 53.9 µM (≈ 25.3 µg/mL)
2 | Cc1ccc(-c2nc3sc(C)nn3c2/C=N/Nc2nc(-c3ccc(Cl)cc3)cs2)cc1 | 53.9 µM (≈ 25 µg/mL)
3 | Cc1ccc(-c2csc(N/N=C/c3c(-c4ccc(C)cc4)nc4sc(C)nn34)n2)cc1 | 56.3 µM (≈ 25 µg/mL)
4 | COc1ccc(-c2csc(N/N=C/c3c(-c4ccc(OC)cc4)nc4sc(C(F)(F)F)nn34)n2)cc1 | 94.3 µM (≈ 50 µg/mL)
5 | COc1ccc(-c2csc(N/N=C/c3c(-c4ccc(C)cc4)nc4sc(C)nn34)n2)cc1 | 109 µM (≈ 50 µg/mL)
6 | Fc1ccc(-c2csc(N/N=C/c3c(-c4ccc(Cl)cc4)nc4sc(C(F)(F)F)nn34)n2)cc1 | 12 µM (≈ 6.26 µg/mL)
7 | Cc1ccc(-c2csc(N/N=C/c3c(-c4ccc(Cl)cc4)nc4sc(C)nn34)n2)cc1 | 108 µM (≈ 50.1 µg/mL)
8 | COc1ccc(-c2nc3sc(C(F)(F)F)nn3c2/C=N/Nc2nc(-c3ccc(C)cc3)cs2)cc1 | 24.1 µM (≈ 12.4 µg/mL)
9 | COc1ccc(-c2nc3sc(C(F)(F)F)nn3c2/C=N/Nc2nc(-c3ccc(F)cc3)cs2)cc1 | 24.1 µM (≈ 12.5 µg/mL)
10 | Cc1ccc(-c2nc3sc(C)nn3c2/C=N/Nc2nc(-c3ccc(F)cc3)cs2)cc1 | 13.9 µM (≈ 6.25 µg/mL)
11 | COc1ccc(-c2nc3sc(C)nn3c2/C=N/Nc2nc(-c3ccc([N+](=O)[O-])cc3)cs2)cc1 | 12.7 µM (≈ 6.25 µg/mL)
12 | COc1ccc(-c2nc3sc(C)nn3c2/C=N/Nc2nc(-c3ccc(C)cc3)cs2)cc1 | 109 µM (≈ 50 µg/mL)
13 | Cc1ccc(-c2nc3sc(C)nn3c2/C=N/Nc2nc(-c3ccc([N+](=O)[O-])cc3)cs2)cc1 | 26.3 µM (≈ 12.5 µg/mL)
14 | O=[N+]([O-])c1ccc(-c2csc(N/N=C/c3c(-c4ccc(Cl)cc4)nc4sc(C(F)(F)F)nn34)n2)cc1 | 91.1 µM (≈ 50.1 µg/mL)
15 | COc1ccc(-c2csc(N/N=C/c3c(-c4ccc(OC)cc4)nc4sc(C)nn34)n2)cc1 | 105 µM (≈ 50 µg/mL)
16 | COc1ccc(-c2nc3sc(C)nn3c2/C=N/Nc2nc(-c3ccc(F)cc3)cs2)cc1 | 108 µM (≈ 50 µg/mL)
17 | COc1ccc(-c2csc(N/N=C/c3c(-c4ccc(Cl)cc4)nc4sc(C)nn34)n2)cc1 | 52.1 µM (≈ 25 µg/mL)
18 | FC(F)(F)c1nn2c(/C=N/Nc3nc(-c4ccc(Cl)cc4)cs3)c(-c3ccc(Cl)cc3)nc2s1 | 92.9 µM (≈ 50.1 µg/mL)
19 | COc1ccc(-c2nc3sc(C(F)(F)F)nn3c2/C=N/Nc2nc(-c3ccc(Cl)cc3)cs2)cc1 | 93.6 µM (≈ 50.1 µg/mL)
20 | Cc1nn2c(/C=N/Nc3nc(-c4ccc(Cl)cc4)cs3)c(-c3ccc(Cl)cc3)nc2s1 | 103 µM (≈ 50 µg/mL)
21 | COc1ccc(-c2csc(N/N=C/c3c(-c4ccc(Cl)cc4)nc4sc(C(F)(F)F)nn34)n2)cc1 | 11.7 µM (≈ 6.26 µg/mL)
22 | Cc1ccc(-c2csc(N/N=C/c3c(-c4ccc(Cl)cc4)nc4sc(C(F)(F)F)nn34)n2)cc1 | 6.03 µM (≈ 3.13 µg/mL)
23 | COc1ccc(-c2nc3sc(C)nn3c2/C=N/Nc2nc(-c3ccc(Cl)cc3)cs2)cc1 | 26 µM (≈ 12.5 µg/mL)
24 | O=C(O)c1cn(C2CC2)c2cc(N3CCNCC3)c(F)cc2c1=O [CIPROFLOXACIN] | 9.44 µM (≈ 3.13 µg/mL)
25 | CC[C@@H](CO)NCCN[C@@H](CC)CO [ETHAMBUTOL] | 15.3 µM (≈ 3.13 µg/mL)
26 | NNC(=O)c1ccncc1 [ISONIAZID] | 0.729 µM (≈ 0.1 µg/mL)
